Calls of active or inactive are those of the source.
Legend:
[1] = toxicity toward HepG2 liver cells – cell-based, plate reader, cherry-pick, antagonist series, cytotoxicity control, dose response (AID 743416); assay type: functional
[2] = test system: Jurkat; assay: blockers of NF-kB activation in T cells – Jurkat, luciferase reporter, luminescence, B- and T-cell, dose response (AID 489004); assay type: functional, cell-based; conditions: Homo sapiens;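 note: NF-kB luciferase reporter Jurkat cells stimulated with PMA plus ionomycin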
[3] = HEK-293T viability loss, compound-treated – cell-based, uHTS hits, cytotoxicity control for B/T-cell NF-kB inhibitor project, dose response (AID 489019); assay type: functional;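 note: IC50 reflects cytotoxicity as loss of cell viability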
[4] = A549 cell cytotoxicity, dose response, cytotoxicity control, plate reader, cherry-pick, antagonist series (AID 743412); assay type: functional, cell-based
[5] = viability loss in HEK293 cells – cell-based, plate reader, cherry-picked samples, cytotoxicity control, dose response (AID 743446); assay type: functional
[6] = Luminescence Cell-Based Dose Confirmation HTS to Identify Inhibitors of Platelet Dense Granule Release. [Related pubchem assays: 1663 (Primary HTS), 1678 (Summary of Project)]; assay type: functional
[7] = blockade of melanocortin 4 receptor signaling – cell-based, plate reader, cherry pick, counter-screen for LGR2 antagonist project, dose response (AID 743444); assay type: functional;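 note: transfected HEK 293 cells stimulated with alpha-MSH peptide; potency of inhibitors of the alpha-MSH evoked signal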
[8] = target: Luciferin 4-monooxygenase (Photinus pyralis, UniProt P08659); assay: inhibition of purified Photinus pyralis luciferase – biochemical, luminescence, dose response (AID 1891)
Sequence of Luciferin 4-monooxygenase (P08659 whole entry): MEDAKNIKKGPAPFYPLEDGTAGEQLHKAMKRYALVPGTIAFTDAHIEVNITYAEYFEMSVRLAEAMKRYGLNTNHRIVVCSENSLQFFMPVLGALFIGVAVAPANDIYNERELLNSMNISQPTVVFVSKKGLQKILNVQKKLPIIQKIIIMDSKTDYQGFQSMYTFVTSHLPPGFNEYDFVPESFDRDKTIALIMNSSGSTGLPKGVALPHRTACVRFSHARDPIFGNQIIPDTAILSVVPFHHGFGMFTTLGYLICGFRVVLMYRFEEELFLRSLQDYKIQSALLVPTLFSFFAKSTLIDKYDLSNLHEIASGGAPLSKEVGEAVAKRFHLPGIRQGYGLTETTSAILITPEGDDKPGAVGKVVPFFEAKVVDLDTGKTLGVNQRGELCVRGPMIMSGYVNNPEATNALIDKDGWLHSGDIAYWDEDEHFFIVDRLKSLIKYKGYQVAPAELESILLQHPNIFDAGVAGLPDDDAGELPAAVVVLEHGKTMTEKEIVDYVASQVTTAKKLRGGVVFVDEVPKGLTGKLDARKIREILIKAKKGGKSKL

[9] = blockers of bursicon-stimulated LGR2 cAMP reporter – cell-based, HEK293, CRE-luciferase reporter, cherry pick, set 2, dose response (AID 743343); assay type: functional;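 note: transfected cells were stimulated with diluted bursicon conditioned medium after compound addition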
[10] = target: Paired box protein Pax-8 (Homo sapiens, UniProt Q06710); assay: PAX8 transcriptional activity inhibition in RMG-I – RMG-I cells, luciferase, cherry-pick, dose response (AID 687027); assay type: functional, cell-based;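 note: luciferase reporter driven by Pax8 target thyroperoxidase promoter measured by SteadyGlo luminescence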
Sequence of Paired box protein Pax-8 (Q06710 whole entry): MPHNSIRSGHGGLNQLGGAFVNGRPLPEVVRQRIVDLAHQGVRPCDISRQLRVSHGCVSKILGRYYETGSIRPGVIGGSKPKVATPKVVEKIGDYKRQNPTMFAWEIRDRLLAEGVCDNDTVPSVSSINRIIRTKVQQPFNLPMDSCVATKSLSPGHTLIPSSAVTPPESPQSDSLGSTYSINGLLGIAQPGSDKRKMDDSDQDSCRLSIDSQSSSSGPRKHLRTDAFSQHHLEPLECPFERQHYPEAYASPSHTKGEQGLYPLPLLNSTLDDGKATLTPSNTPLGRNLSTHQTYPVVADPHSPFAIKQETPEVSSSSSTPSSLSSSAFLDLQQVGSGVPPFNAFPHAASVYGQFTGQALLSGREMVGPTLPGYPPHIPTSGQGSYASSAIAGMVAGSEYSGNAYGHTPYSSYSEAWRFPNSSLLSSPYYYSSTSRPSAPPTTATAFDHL

[11] = loss of viability in HepG2 cells – cell-based, CellTiter-Glo, cherry-picked, cytotoxicity control for Shn3 inhibitor project, dose response (AID 624134); assay type: functional
[12] = reduction of Shn3 3'UTR-driven luciferase in osteoblasts – cell-based, Clone20 osteoblasts, firefly luciferase, cherry-picked, dose response (AID 624132); assay type: functional;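 note: firefly luciferase luminescence from reporter carrying the Shn3 3'UTR in osteoblasts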
[13] = general cell-killing toxicity readout – plate reader, dry powder samples, cytotoxicity control for PAX8 inhibitor project, dose response (AID 743021); assay type: functional, cell-based
[14] = test system: Vero; assay: cells; assay type: functional, cell-based; conditions: Chlorocebus sabaeus
[15] = target: ATP-dependent molecular chaperone HSP82 (Candida albicans (strain WO-1) (Yeast), UniProt C4YTQ8); assay: steroid-induced GRE reporter decrease in yeast – S. cerevisiae, luminescence, Hsp90 inhibitor project, dose response (AID 2400); assay type: functional, cell-based;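 note: beta-galactosidase luminescence from glucocorticoid response element reporter as proxy for Hsp90 function; inhibitor potency where signal loss means Hsp90 inhibition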
Sequence of ATP-dependent molecular chaperone HSP82 (C4YTQ8 whole entry): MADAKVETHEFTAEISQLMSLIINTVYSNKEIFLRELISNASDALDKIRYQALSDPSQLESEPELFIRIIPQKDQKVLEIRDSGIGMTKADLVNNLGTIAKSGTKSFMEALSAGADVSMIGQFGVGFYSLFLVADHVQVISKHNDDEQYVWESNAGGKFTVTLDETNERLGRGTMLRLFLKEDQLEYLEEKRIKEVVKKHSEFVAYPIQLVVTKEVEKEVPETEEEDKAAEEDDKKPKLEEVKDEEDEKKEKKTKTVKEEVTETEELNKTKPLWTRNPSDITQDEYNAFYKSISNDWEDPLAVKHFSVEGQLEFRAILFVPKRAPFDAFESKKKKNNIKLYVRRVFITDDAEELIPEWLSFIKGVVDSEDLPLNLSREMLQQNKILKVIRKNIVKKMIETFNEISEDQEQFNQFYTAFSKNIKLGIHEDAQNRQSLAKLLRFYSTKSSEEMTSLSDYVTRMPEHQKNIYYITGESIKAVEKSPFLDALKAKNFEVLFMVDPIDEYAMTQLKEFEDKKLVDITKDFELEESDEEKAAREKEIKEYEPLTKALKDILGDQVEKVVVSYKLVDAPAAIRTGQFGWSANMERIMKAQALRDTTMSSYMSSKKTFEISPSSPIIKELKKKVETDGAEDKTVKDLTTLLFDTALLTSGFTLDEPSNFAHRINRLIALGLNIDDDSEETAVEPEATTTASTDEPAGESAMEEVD

[16] = NIH-3T3 fibroblast cytotoxicity, dose response, cytotoxicity control, cell-based, fluorescence, Alamar Blue, secondary assay (AID 2327); assay type: functional;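 note: NIH-3T3 mouse fibroblasts cultured with fluconazole at 8 µg/mL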
[17] = fluconazole-exposed Candida albicans growth modulators – fluorescence, retest, confirmation (AID 2467); assay type: functional, cell-based
[18] = target: Serine/threonine-protein phosphatase (Candida dubliniensis (strain CD36 / CBS 7987 / NCPF 3949 / NRRLY-17841) (Yeast), UniProt B9W6M3); assay: blockers of CaCl2-induced CDRE-lacZ signaling – S. cerevisiae, luminescence, secondary, dose response (AID 2388); assay type: functional, cell-based;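 note: yeast reporter cells carrying a calcineurin-responsive lacZ construct stimulated with calcium chloride; luminescent beta-galactosidase reporter signal in whole cells rather than isolated phosphatase activity; potency for inhibition where a drop in reporter signal means calcineurin blockade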
Sequence of Serine/threonine-protein phosphatase (B9W6M3 whole entry): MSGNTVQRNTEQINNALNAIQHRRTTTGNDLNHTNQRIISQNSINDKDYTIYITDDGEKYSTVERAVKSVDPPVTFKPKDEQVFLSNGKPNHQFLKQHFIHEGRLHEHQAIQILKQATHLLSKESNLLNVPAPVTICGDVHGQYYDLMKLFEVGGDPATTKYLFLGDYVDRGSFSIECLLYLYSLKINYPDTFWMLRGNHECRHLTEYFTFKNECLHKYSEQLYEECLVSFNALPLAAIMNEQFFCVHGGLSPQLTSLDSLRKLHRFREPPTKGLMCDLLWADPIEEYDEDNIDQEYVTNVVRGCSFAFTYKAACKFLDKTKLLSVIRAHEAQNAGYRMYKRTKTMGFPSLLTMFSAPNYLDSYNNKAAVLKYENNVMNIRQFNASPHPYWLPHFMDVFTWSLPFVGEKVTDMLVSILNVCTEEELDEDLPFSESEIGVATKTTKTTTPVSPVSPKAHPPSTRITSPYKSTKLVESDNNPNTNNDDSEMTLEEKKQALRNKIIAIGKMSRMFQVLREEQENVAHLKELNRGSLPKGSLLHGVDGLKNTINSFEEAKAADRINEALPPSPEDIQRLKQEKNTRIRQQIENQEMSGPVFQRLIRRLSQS

[19] = test system: HEK293; assay: cells; assay type: functional, cell-based; conditions: Homo sapiens
[20] = target: T1, Nuclear receptor subfamily 0 group B member 1 (Homo sapiens, UniProt P51843); assay: Luminescence-based cell-based high throughput dose response assay for inhibitors of the orphan nuclear receptor subfamily 0, group B, member 1 (DAX1; NR0B1). [Related pubchem assays (depositor defined):AID504766, AID504790]; assay type: functional
T1 sequence (P51843 whole entry): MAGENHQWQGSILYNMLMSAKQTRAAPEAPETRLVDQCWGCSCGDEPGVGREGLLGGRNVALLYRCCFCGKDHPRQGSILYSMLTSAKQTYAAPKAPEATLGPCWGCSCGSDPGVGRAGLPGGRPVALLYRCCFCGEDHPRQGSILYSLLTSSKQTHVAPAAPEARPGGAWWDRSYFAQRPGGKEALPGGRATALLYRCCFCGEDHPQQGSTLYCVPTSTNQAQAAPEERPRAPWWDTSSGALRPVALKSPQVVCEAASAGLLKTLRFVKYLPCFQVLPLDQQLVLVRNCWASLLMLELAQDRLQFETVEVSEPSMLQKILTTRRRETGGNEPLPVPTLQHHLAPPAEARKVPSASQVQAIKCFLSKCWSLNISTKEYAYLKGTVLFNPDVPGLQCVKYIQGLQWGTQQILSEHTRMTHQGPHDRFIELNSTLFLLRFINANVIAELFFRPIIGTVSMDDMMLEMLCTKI

[21] = target: T2, Microphthalmia-associated transcription factor (Homo sapiens, UniProt O75030); assay: reducers of TRPM1 reporter luminescence, concentration series – cell-based, SK-MEL-5, cherry-picked, set 3, MITF inhibitor project, dose response (AID 493073); assay type: functional;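 note: SK-MEL-5 melanoma cells with luciferase driven by the MITF target TRPM1 promoter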
T2 sequence (O75030 whole entry): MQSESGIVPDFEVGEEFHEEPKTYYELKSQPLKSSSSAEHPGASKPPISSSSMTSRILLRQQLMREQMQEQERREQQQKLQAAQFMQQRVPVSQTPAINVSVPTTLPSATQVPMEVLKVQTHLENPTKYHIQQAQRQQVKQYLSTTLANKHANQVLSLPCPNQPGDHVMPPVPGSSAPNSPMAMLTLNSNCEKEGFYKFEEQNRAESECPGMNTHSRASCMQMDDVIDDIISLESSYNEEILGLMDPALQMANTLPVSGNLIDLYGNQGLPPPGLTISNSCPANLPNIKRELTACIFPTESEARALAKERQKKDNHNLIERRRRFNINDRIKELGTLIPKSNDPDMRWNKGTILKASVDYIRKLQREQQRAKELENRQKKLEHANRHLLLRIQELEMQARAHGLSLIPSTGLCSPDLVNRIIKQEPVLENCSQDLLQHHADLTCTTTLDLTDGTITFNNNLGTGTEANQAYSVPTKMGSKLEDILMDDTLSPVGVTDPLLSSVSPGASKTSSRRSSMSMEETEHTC

[22] = target: T3, Endoribonuclease toxin MazF (Escherichia coli K-12, UniProt P0AE70); assay: substrate-only fluorescence increase artefacts – biochemical, single-stranded RNase substrate, counter-screen for MazEF activator project, dose response (AID 588502); assay type: functional
T3 sequence (P0AE70 whole entry): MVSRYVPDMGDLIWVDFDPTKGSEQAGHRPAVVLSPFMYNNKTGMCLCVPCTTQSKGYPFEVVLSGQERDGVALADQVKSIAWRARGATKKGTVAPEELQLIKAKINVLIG

[23] = test system: A-375; assay: proliferation inhibition in MITF-low A375 cells – cell-based, cherry-pick samples, set 2, counter-screen for MITF modulator project, dose response (AID 540335); assay type: functional; conditions: Homo sapiens
[24] = test system: A-375; assay: MITF: Counter assay: A375 proliferation Measured in Cell-Based System Using Plate Reader - 2084-03_Inhibitor_Dose_DryPowder_Activity. [Related pubchem assays (depositor defined):AID488944]; assay type: functional; conditions: Homo sapiens
[25] = target: T3, Endoribonuclease toxin MazF; assay: activation of MazEF endoribonuclease cleavage – biochemical, fluorescence, single-stranded RNA substrate, uHTS hits, dose response (AID 588481); assay type: functional
[26] = target: T4, Ubiquitin-conjugating enzyme E2 N (Homo sapiens, UniProt P61088); assay type: functional
T4 sequence (P61088 whole entry): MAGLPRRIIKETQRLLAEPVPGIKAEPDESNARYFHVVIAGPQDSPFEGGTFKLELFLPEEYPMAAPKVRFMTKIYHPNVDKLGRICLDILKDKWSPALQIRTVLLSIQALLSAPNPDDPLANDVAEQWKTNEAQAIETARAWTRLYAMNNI

[27] = target: T4, Ubiquitin-conjugating enzyme E2 N; assay type: functional; remark: listed apart in the source
[28] = target: T5, Bcl-2-related protein A1 (Mus musculus, UniProt Q07440); assay type: functional;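 note: confirmatory dose–response counterscreen on Bfl-1, used to check hits from a UBC13 polyubiquitin inhibitor campaign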
T5 sequence (Q07440 whole entry): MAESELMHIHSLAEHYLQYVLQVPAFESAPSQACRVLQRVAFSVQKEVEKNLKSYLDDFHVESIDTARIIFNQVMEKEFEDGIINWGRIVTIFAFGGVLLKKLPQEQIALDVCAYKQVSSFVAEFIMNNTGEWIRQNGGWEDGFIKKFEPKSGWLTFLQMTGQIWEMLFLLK

[29] = target: Type-1 angiotensin II receptor (Homo sapiens, UniProt P30556); assay: antagonism of angiotensin II type 1 receptor – cell-based, uHTS hits, selectivity assay for APJ receptor antagonist project, dose response (AID 463214); assay type: functional;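 note: antagonist potency against angiotensin II stimulated AT1 response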
Sequence of Type-1 angiotensin II receptor (P30556 whole entry): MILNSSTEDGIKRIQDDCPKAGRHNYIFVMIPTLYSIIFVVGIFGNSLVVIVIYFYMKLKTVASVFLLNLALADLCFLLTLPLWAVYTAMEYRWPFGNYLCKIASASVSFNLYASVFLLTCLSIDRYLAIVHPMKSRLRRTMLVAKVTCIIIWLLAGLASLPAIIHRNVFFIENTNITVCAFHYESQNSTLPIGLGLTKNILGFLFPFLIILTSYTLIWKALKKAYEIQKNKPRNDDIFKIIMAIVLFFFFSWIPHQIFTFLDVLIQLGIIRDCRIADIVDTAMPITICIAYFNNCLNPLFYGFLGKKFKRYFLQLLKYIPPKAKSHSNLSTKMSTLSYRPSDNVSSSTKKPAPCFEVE

[30] = target: Beta-galactosidase (Escherichia coli, UniProt Q8VNN2); assay: PubChem AID 485352; assay type: functional
Sequence of Beta-galactosidase (Q8VNN2 whole entry): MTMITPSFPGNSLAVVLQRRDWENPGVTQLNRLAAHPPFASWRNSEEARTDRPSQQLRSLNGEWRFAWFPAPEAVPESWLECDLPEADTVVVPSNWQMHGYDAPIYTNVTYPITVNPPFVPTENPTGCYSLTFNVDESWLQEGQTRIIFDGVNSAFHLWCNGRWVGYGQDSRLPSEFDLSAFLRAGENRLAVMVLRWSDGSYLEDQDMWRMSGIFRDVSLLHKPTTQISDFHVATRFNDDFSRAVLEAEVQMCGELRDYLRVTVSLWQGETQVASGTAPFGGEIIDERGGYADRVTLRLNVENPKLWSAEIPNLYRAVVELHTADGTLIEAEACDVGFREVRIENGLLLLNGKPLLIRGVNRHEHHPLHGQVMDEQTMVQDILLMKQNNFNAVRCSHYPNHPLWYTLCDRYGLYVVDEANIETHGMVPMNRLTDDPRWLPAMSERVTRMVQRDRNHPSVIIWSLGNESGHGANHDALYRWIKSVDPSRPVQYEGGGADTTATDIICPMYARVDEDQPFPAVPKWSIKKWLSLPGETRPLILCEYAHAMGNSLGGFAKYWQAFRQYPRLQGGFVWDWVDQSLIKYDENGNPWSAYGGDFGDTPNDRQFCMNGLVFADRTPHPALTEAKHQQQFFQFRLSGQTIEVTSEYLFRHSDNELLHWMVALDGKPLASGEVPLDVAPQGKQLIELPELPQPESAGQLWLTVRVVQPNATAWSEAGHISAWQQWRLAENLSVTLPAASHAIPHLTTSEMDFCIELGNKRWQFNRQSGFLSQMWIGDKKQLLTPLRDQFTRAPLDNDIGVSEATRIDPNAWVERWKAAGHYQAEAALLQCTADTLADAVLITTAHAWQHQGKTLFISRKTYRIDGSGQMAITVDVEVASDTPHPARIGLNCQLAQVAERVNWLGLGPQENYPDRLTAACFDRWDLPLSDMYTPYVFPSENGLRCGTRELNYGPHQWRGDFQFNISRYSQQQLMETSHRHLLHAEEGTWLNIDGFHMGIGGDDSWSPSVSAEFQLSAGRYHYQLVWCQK

[31] = viability of HCT116 lacking mutant beta-catenin – cell-based, human colon tumor, dose response (AID 1045); assay type: functional;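 note: HCT116 colon tumor cells with beta catenin knocked out; cells exposed to compound for 60 hours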
[32] = viability of PTEN-deleted HCT116 cells – cell-based, HCT116 PTEN knockout, dose response (AID 1047); assay type: functional;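 note: HCT116 colon tumor cells with PTEN knocked out; cells exposed to compound for 60 hours before readout; potency for loss of cell viability measured by luminescence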
[33] = luciferase reporter signal suppression in cells – H4 neuroglioma cells, luminescence, dose response (AID 1990); assay type: functional, cell-based
[34] = Luminescence Cell-Based Dose Response HTS to Identify Inhibitors of 5'UTR Stem-Loop Driven Prion Protein mRNA Translation in H4 Neuroglioblastoma Cells. [Related pubchem assays: 1827 (Project Summary), 1813 (Primary HTS)]; assay type: functional
[35] = alpha-synuclein stem-loop luciferase translation blockers – H4 neuroglioma cells, luminescence, confirmation (AID 1988); assay type: functional, cell-based

**Q.** With COCCn1c(C)cc(C2=NN=C(NC3CC3)SC2)c1C as the compound, how does the AC50 [1] read?
**A.** 26.7 µM (active)

**Q.** What about the IC50 [2] of the same compound?
**A.** 220 nM (active)

**Q.** What about the IC50 [3] of the same compound?
**A.** > 80 µM (inactive)

**Q.** What about the AC50 [4] of the same compound?
**A.** 22.4 µM (active)

**Q.** And the AC50 [5]?
**A.** 29.2 µM (active)

**Q.** And the EC50 [6]?
**A.** 2.14 µM (active)

**Q.** And the AC50 [7]?
**A.** 282 nM (active)

**Q.** What about the EC50 [8] of the same compound?
**A.** 7.61 µM (active)

**Q.** What about the AC50 [9] of the same compound?
**A.** 215 nM (active)

**Q.** And the AC50 [10]?
**A.** < 260 nM (active)

**Q.** And the AC50 [11]?
**A.** 46.1 µM (active)

**Q.** What about the AC50 [12] of the same compound?
**A.** < 260 nM (active)

**Q.** What about the AC50 [13] of the same compound?
**A.** 12.1 µM (active)

**Q.** Which IC50 [14] does the source give for COc1cccc2sc(N(CCCN(C)C)C(=O)c3ccc(S(=O)(=O)N4CCCc5ccccc54)cc3)nc12 here?
**A.** 24.6 µM (active)

**Q.** With CC(C)Cc1nc2oc3c(O)ncnc3c2c2c1CCCC2 as the compound, how does the EC50 [15] read?
**A.** > 150 µM (inactive)

**Q.** What about the EC50 [16] of the same compound?
**A.** > 160 µM (inactive)

**Q.** And the EC50 [17]?
**A.** 891 nM (active)

**Q.** What about the EC50 [18] of the same compound?
**A.** > 180 µM (inactive)

**Q.** What does the source list for CCCCNc1cc(=O)n(C)c(=O)[nH]1?
**A.** IC50 [19]: > 67.5 µM (inactive); IC50 [20]: > 67.5 µM (inactive)

**Q.** Which AC50 [21] does the source give for N=c1n(CC(=O)c2ccc([N+](=O)[O-])cc2)c2ccccc2n1Cc1ccccc1 here?
**A.** 4.83 µM (active)

**Q.** And the EC50 [22]?
**A.** > 99 µM (inactive)

**Q.** What about the AC50 [23] of the same compound?
**A.** > 11 µM (active)

**Q.** And the AC50 [24]?
**A.** > 11 µM (active)

**Q.** And the EC50 [25]?
**A.** > 99 µM (inactive)

**Q.** What does the source list for C#CCOCCOCCOCCNc1nc(N2CCN(C(=O)C([C@@H](C)O)n3cc([C@@H](N)CCCCN)nn3)CC2)nc(N2CCN(C(=O)[C@H](CO)n3cc([C@@H](N)C(C)C)nn3)CC2)n1 (stereo partly drawn)?
**A.** IC50 [26]: 7.85 µM (active); IC50 [27]: 8.01 µM (active); IC50 [28]: > 20 µM (inactive)

**Q.** What does the source list for COc1ccc(NS(=O)(=O)c2cc([N+](=O)[O-])ccc2N/N=C\c2c(C)[nH]c3ccccc23)cc1?
**A.** IC50 [29]: > 40 µM (not active); EC50 [30]: > 40 µM (inactive); EC50 [31]: 19.9 µM (active); EC50 [32]: 17.6 µM (active)

**Q.** Which IC50 [19] does the source give for O=C(O)c1ccc(N/N=C/C2=Cc3ccccc3OC2)cc1 here?
**A.** > 67.6 µM (inactive)

**Q.** And the IC50 [20]?
**A.** > 67.6 µM (inactive)

**Q.** Which results are given for CC1CC2(C)Oc3ccccc3CC2C(C)C1CNCCCN(C)C (stereo not drawn)?
**A.** EC50 [33]: > 120 µM (not active); EC50 [34]: > 120 µM (not active); EC50 [35]: > 120 µM (not active); AC50 [24]: 29.8 µM (active)

From ChEMBL document CHEMBL1201862, “PubChem BioAssay data set” (2004)
